Assay [1] deals with Escherichia coli. Description: Inhibition of recombinant Escherichia coli MurG at 50 ug/ml after 30 mins by radiochemical assay in presence of [3H]-UDPGlcNAc.
The target in assay [2] is T1, Phospho-N-acetylmuramoyl-pentapeptide-transferase (Escherichia coli) (UniProt E2QF15).
T1 sequence (whole entry): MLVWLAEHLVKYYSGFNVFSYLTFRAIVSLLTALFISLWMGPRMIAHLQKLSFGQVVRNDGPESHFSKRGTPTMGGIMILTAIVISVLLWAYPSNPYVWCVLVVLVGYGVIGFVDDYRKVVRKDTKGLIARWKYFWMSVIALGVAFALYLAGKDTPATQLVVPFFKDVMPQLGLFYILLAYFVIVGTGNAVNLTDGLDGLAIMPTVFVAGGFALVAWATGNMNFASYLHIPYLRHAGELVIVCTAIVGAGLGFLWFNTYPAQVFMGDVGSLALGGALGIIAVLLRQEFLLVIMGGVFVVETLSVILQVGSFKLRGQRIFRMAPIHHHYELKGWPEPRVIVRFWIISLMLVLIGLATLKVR
Description: Inhibition of recombinant MraY overexpressed in Escherichia coli membranes at 25 ug/ml by continuous fluorescence assay. In kind it is cell membranes.

The target in assay [3] is T1, Phospho-N-acetylmuramoyl-pentapeptide-transferase (Escherichia coli). Description: Inhibition of recombinant MraY overexpressed in Escherichia coli membranes after 30 mins by radiochemical assay in presence of [14C-D-Ala]-UDPMurNAc-pentapeptide. The class given is cell membranes.
For assay [4], the target named is T2, Phospho-N-acetylmuramoyl-pentapeptide-transferase (Escherichia coli, UniProt E2QF15).
T2 sequence (E2QF15 whole entry): T1 sequence (whole entry)
Nature of the assay: Inhibition of recombinant MraY overexpressed in Escherichia coli membranes by continuous fluorescence assay. The class given is cell membranes.

Assay [5] concerns Escherichia coli. Description: Inhibition of recombinant Escherichia coli MurG at 500 ug/ml after 30 mins by radiochemical assay in presence of [3H]-UDPGlcNAc.
Assay [6] has as its system Pseudomonas putida. Nature of the assay: Antimicrobial activity against Pseudomonas putida ATCC 33015 at 1.95 to 125 ug/ml by liquid culture microtitre plate assay. The class given is functional, organism-based.
In assay [7] the test system is Bacillus subtilis. Description: Antimicrobial activity against Bacillus subtilis W23 by liquid culture microtitre plate assay. In kind it is functional.
Assay [8] concerns Micrococcus flavus. Description: Inhibition of MraY in Micrococcus flavus membranes at 500 uM by continuous fluorescence assay. In kind it is cell membranes.
Assay [9] in a line: Inhibition of MraY in Bacillus subtilis membranes by continuous fluorescence assay. In kind it is cell membranes.
Assay [10] deals with Pseudomonas aeruginosa. Description: Inhibition of MraY in Pseudomonas aeruginosa membranes at 500 uM by continuous fluorescence assay. In kind it is cell membranes.
Assay [11] concerns Micrococcus flavus. Description: Antimicrobial activity against Micrococcus flavus at 1.95 to 125 ug/ml by liquid culture microtitre plate assay. In kind it is functional, organism-based.
Assay [12] concerns the target T1, Phospho-N-acetylmuramoyl-pentapeptide-transferase (Escherichia coli). Nature of the assay: Inhibition of recombinant MraY overexpressed in Escherichia coli membranes at 100 uM after 30 mins by radiochemical assay in presence of [14C-D-Ala]-UDPMurNAc-pentapeptide. In kind it is cell membranes.
For assay [13], the system named is Escherichia coli. Description: Antimicrobial activity against Escherichia coli DH5[alpha] at 1.95 to 125 ug/ml by liquid culture microtitre plate assay. The class given is functional, organism-based.
For assay [14], the target named is T1, Phospho-N-acetylmuramoyl-pentapeptide-transferase (Escherichia coli). Description: Inhibition of recombinant MraY overexpressed in Escherichia coli membranes at 500 uM after 30 mins by radiochemical assay in presence of [14C-D-Ala]-UDPMurNAc-pentapeptide. In kind it is cell membranes.
Assay [15] concerns Staphylococcus aureus. Nature of the assay: Inhibition of MraY in Staphylococcus aureus membranes at 500 uM by continuous fluorescence assay. In kind it is cell membranes.
Assay [16] in a line: Inhibition of MraY in Staphylococcus aureus membranes by continuous fluorescence assay. The class given is cell membranes.
A short description of assay [17]: Inhibition of MraY in Micrococcus flavus membranes by continuous fluorescence assay. The class given is cell membranes.
The nature of assay [18]: Inhibition of MraY in Pseudomonas aeruginosa membranes by continuous fluorescence assay. The class given is cell membranes.

In brackets after ≈: the same amount, converted by molar mass. Activity calls are given as the source filed them. No cut-off for these calls is given here.

What is called inhibition is the share of the control response that was lost under treatment. As a reminder, the IC50 is the midpoint of a concentration-inhibition curve. For orientation: MIC means the lowest concentration that inhibits growth of the organism.

RAMOPLANIN: in [1], the inhibition was > 80%.

`CC(=O)N[C@H]1[C@@H](O[C@@H]2O[C@H](CC(O)[C@H]3O[C@@H](n4ccc(=O)[nH]c4=O)[C@H](O)[C@@H]3O)[C@H](O)[C@H](O)[C@H]2NC(=O)/C=C/CC(C)C)O[C@H](CO)[C@@H](N)[C@@H]1O` (stereo partly drawn): the inhibition in assay [2] was > 95%.

Turning to `O=C(O)c1ccccc1-c1c2cc(Cl)c(=O)cc-2oc2cc(O)c(Cl)cc12`, the inhibition entry in assay [3] was “inactive”.

With `COc1cc(C)cc2c(-c3c(O)cc(O)c4c3C[C@@H](C)N[C@@H]4C)cc(-c3cc(-c4c(O)cc(O)c5c4C[C@@H](C)N[C@@H]5C)c4cc(C)cc(OC)c4c3O)c(O)c12` [MICHELLAMINE A], the IC50 worked out at 456 µM in [4] and 386 µM in assay [9]. Further, the inhibition entry in assay [5] is “inactive”. Further, the outcome in assay [6], in assay [11] and in assay [13] was inactive. This compound also registered an MIC in assay [7] of 16 µg/mL (≈ 21.1 µM). In addition, the inhibition turned out to be 14% in assay [8]; 38% in [10]; 20% in [12]; 60% in assay [14]; 0% in assay [15].

As for `O=C(O)c1ccccc1-c1c2cc(Br)c(=O)cc-2oc2cc(O)c(Br)cc12`, in assay [3], the inhibition entry was “inactive”.

As to `O=C(O)c1c(Cl)c(Cl)c(Cl)c(Cl)c1-c1c2cc(Br)c(=O)c(Br)c-2oc2c(Br)c(O)c(Br)cc12`, the IC50 in [16] stood at 254 µM; in [4], 32 µM; in assay [17] it was 195 µM; in assay [9] it was 165 µM; in [18], 128 µM. The inhibition result in assay [5] was “inactive”. Also, the inhibition entry in assay [3] was “Active”.

For the origin of these results see ChEMBL document CHEMBL3351389, “Identification of novel inhibitors of phospho-MurNAc-pentapeptide translocase MraY from library screening: Isoquinoline alkaloid michellamine B and xanthene dye phloxine B” (Bioorg Med Chem, 2014).
